Laboratory results: US5017703A, “Indolylpiperidine compounds, processes for the preparation thereof and pharmaceutical composition comprising the same” (Fujisawa Pharmaceutical Company, Ltd., priority 1988, dated 1991)
≈ marks a conversion by molar mass, not a printed value.

tested on: anaphylactic asthma in guinea pigs; assay: Antagonistic action on anaphylactic asthma in guinea pigs; type: in vivo, Male Hartley-strain guinea pigs; conditions: Cavia porcellus; oral, 30 min before 5% egg-white albumin aerosol; passively sensitized guinea pigs, 5 per group; survival for not less than 2 hours; read-out: Prophylactic Effect ED50
Protocol: Antagonistic action on anaphylactic asthma in guinea pigs.
Male Hartley-strain guinea pigs weighing 305-400g were used. These animals were sensitized by intravenous injection of 0.5 ml/animal of rabbit antiserum to egg-white albumin (PCA antibody titer 4,000). After 24 hours, the animals were housed individually in 5.3-liter plastic chambers. Using a commercial sprayer, a 5% egg-white albumin solution was sprayed in the form of an aerosol into each chamber at a rate of 0.16 ml/min for 2 minutes. Thirty minutes prior to the spraying of the egg-white albumin solution, the test compound was administered orally in varied concentrations. Each dosed group consisted of 5 animals. The prophylactic effect to anaphylaxis was expressed in terms of the ED50 value determined on the basis of the number of guinea pigs which had survived for not less than 2 hours after antigen spraying for each administration concentration of the test compound.

SMILES | ED50 [mg/kg]
COc1cc(/C=C/C=C/C(=O)NCCCCN2CCC(c3c[nH]c4ccccc34)CC2)ccc1O [Compound A, 1-[4-{5-(4-Hydroxy-3-methoxyphenyl)-(2E, 4E)-2,4-pentadienoylamino}butyl]-4-(3-indolyl)-piperidine] | 0.5
COc1cc(/C=C/C=C/C(=O)NCCN2CCC(c3c[nH]c4ccccc34)CC2)cc(OC)c1O [Compound C, 1-[2-{5-(4-Hydroxy-3,5-dimethoxyphenyl)-(2E, 4E)-2,4-pentadienoylamino}ethyl]-4-(3-indolyl)piperidine] | 0.5

tested on: SRS-A synthesis or release from peritoneal exudate cells; assay: Anti-SRS-A activity (SRS-A synthesis or release from peritoneal exudate cells); type: cell-based, SD rats; conditions: rat peritoneal exudate cells, Ca++-ionophore A23187 1 μg/ml, indomethacin 10 μg/ml; SRS-A determined by contractility of isolated guinea pig ileum; read-out: Inhibitory Concentration IC50
Protocol: Peritoneal exudate cells were collected from glycogen-injected SD rats and adjusted to 1×10^7 cells/ml with Tyrode's solution. One milliliter of the cell suspension was incubated with indomethacin (10 μg/ml) and each varied concentration of the test compound for 10 minutes and, then, further incubated with Ca^++ -ionophore (A23187, 1 μg/ml) for 10 minutes. The supernatant was collected by centrifugation and the SRS-A (slow-reacting substance of anaphylaxis) activity was determined in terms of contractility of the isolated guinea pig ileum in the presence of mepyramine, atropine and methysergide.
The results were expressed in terms of the 50% inhibitory concentration to SRS-A synthesis or release from peritoneal exudate cells.

SMILES | IC50 [µg/mL]
COc1cc(/C=C/C=C/C(=O)NCCN2CCC(c3c[nH]c4ccccc34)CC2)ccc1OC(C)=O [Compound D, 1-[2-{5-(4-Acetoxy-3-methoxyphenyl)-(2E, 4E)-2,4-pentadienoylamino}ethy]-4-(3-indolyl)piperidine] | 0.6 (≈ 1.23 µM)
COc1cc(/C=C/C=C/C(=O)NCCN2CCC(c3c[nH]c4ccccc34)CC2)cc(OC)c1OC(C)=O [Compound E, 1-[2-{5-(4-Acetoxy-3,5-dimethoxyphenyl)-(2E, 4E)-2,4-pentadienoylamino}ethyl]-4-(3-indolyl)piperidine] | 0.23 (≈ 0.444 µM)

Other lines, results leading:

IC50 [µg/mL] | SMILES
0.91 (≈ 2.04 µM) | COc1cc(/C=C/C=C/C(=O)NCCN2CCC(c3c[nH]c4ccccc34)CC2)ccc1O [Compound B, 1-[2-{5-(4-Hydroxy-3-methoxyphenyl)-(2E, 4E)-2,4-pentadienoylamino}ethyl]-4-(3-indolyl)piperidine]
0.65 (≈ 1.34 µM) | O=C(/C=C/C=C/c1cc(Cl)c(O)c(Cl)c1)NCCN1CCC(c2c[nH]c3ccccc23)CC1 [Compound F, 1-[2-{5-(3,5-Dichloro-4-hydroxyphenyl)-(2E, 4E)-2,4-pentadienoylamino}ethyl]-4-(3-indolyl)piperidine]
0.68 (≈ 1.43 µM) | COc1cc(/C=C/C=C/C(=O)NCCN2CCC(c3c[nH]c4ccccc34)CC2)cc(OC)c1O [Compound C, 1-[2-{5-(4-Hydroxy-3,5-dimethoxyphenyl)-(2E, 4E)-2,4-pentadienoylamino}ethyl]-4-(3-indolyl)piperidine]
